Data reported in patent publication US20020119917A1, “ANTI-INFLAMMATORY PEPTIDES DERIVED FROM C-REACTIVE PROTEIN” (priority 1996, published 2002).
Like-named read-outs stand apart in the source and are kept apart here. Starred links: 1 amine or outer side, 2 acyl side, 3 side chain; linkers in the order of their positions; H or OH if unused. Non-standard residues stand in square brackets, D forms with d. Residues, ends and D or L forms follow the SMILES beside them. No end group written: not given here. *: point of attachment. Fmoc = O=C(OCC1c2ccccc2-c2ccccc21)*; NH(1-naphthyl) = c1ccc2c(N*)cccc2c1; MeOSuc = COC(=O)CCC(=O)*; Cbz = O=C(OCc1ccccc1)*; CO = O=C([*:1])[*:2]

Experiments:
[1] = molecular target: T1, human leukocyte elastase (hLE) (Homo sapiens, UniProt P08246); assay: In-vitro inhibition of hLE (cleavage of MeOSuc-AAPV-NA); type: biochemical
T1 construct: Neutrophils (1.4 billion) were isolated from whole blood obtained from a single healthy laboratory donor; from tissue; host or cells: neutrophils from whole blood of a single healthy donor
T1 sequence (P08246 30-247 limits assumed): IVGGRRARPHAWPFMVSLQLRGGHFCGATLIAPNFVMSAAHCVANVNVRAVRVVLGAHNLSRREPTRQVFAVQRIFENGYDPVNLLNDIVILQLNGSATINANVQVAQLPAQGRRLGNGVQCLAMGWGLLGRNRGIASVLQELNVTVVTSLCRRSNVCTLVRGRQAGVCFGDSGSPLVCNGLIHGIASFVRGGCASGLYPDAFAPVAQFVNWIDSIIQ
Protocol: (§1) The enzymatic activity was assayed with MeOSuc-AAPV-NA for hLE determination and Suc-AAPF-NA for hCG determination (both in 100 mM Hepes buffer, pH 7.4, containing 0.05% of the […] detergent Brij-35). The activities of the individual enzymatic fractions were 100% free from cross-contamination. […] The fractions containing hLE and hCG were dialyzed each against 0.1% pyridinium acetate, pH 5.3, divided into 20 aliquots, lyophilized, and stored at −20° C. until use.
Peptides were dissolved in 100 mM Hepes buffer pH 7.4 containing 0.1% Brij-35 with 10% DMSO to yield 600 μM solutions, which were used to make further dilutions with the same buffer, and 80 μL aliquots were added in duplicates to 96-well plates. The substrate, 600 or 900 μM MeOSuc-AAPV-NA in the same buffer with 5% DMSO, was added to each well in addition to the blank wells, and the plate was placed in the plate reader equilibrated to 37° C. (Dynateck MR-6000). Lyophilized aliquots of hLE were dissolved in 1600 μL of 100 mM Hepes buffer without DMSO, and 80 μL of the enzyme solution was added to the peptides and substrate to initiate the reaction. […] The final volume was 240 μL containing: 5% DMSO, 1-200 μM of peptide, 200 μM substrate, and 0.75 μg (about 25 picomol) enzyme.
For hLE, V is determined by fitting a linear equation to the first 6 time-points (10 min) of the kinetics data using the least squares method. […] From calculating the error in the slope of the equation, the relative error for Ki was deduced:
Ki={slope*(1+[S]/Km)}^−1 because Ki=[I]*{(1+[S]/Km)*(Vo/Vi−1)}^−1.
The hLE inhibitory capability of CRP-derived peptides was evaluated by inhibiting the enzymatic cleavage of MeOSuc-AAPV-NA as described in Materials and Methods (section v).

[2] = molecular target: T2, human leukocyte cathepsin G (hCG) (Homo sapiens, UniProt P08311); assay: In-vitro inhibition of hCG (conversion of Suc-AAPF-NA); type: biochemical
T2 construct: Neutrophils (1.4 billion) were isolated from whole blood obtained from a single healthy laboratory donor; from tissue; host or cells: neutrophils from whole blood of a single healthy donor
T2 sequence (P08311 21-244 limits assumed): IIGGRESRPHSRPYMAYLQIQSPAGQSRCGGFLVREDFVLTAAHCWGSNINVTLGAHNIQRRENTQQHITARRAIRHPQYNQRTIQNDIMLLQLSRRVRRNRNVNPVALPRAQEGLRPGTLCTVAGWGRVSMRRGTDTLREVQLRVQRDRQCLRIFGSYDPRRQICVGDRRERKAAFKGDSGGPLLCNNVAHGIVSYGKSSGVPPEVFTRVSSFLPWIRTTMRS
Protocol: as §1
Similar conditions to hLE inhibition experiments ere used except the substrate: 80 μL of 1.8 mM Suc-AAPF-NA. The enzyme was issolved in 800 μL buffer, and the reaction was monitored every 6 min for 1 hour. The final volume was 240 μL containing: 5% DMSO, 1-500 μM peptide, 600 μM substrate, and 1.2 μg enzyme (about 40 picomol).
For hCG, V is determined by fitting a quadratic equation to the total kinetic data (60 min), using the least squares method and calculating V at t=0.
The inhibitory capability of several CRP-derived peptides was evaluated by inhibiting the enzymatic conversion of Suc-AAPF-NA (as described in Materials and Methods (vi) above).

[3] = molecular target: T3, hLE (Homo sapiens, UniProt P08246); assay: Degradation profiles of peptides by RP-HPLC after incubation with hLE; type: in vitro ADME; conditions: incubated with hLE in PBS, 37° C., time-scale hours
T3 construct: Neutrophils (1.4 billion) were isolated from whole blood obtained from a single healthy laboratory donor; from tissue; host or cells: neutrophils from whole blood of a single healthy donor
T3 sequence (P08246 30-247 limits assumed): T1 sequence (P08246 30-247 limits assumed)
Protocol: Several active peptide inhibitors were dissolved in calcium- and magnesium-free phosphate-buffered saline (PBS), 125 μg/250 μL, mixed with 0.25 aliquots of hLE or hCG in 250 μL PBS and incubated at 37° C. Periodically (1,3,8, and 24 hour), 100 μL samples were removed from the reaction vessel. The samples were diluted with 150 μL of 0.1% TFA, frozen with liquid nitrogen, and stored at −20° C. prior to HPLC analysis.
More insight into the mechanism of inhibition is provided by HPLC time-course elution profiles of peptide 1, incubated with hLE in PBS (FIG. 2). […] The other bonds in peptide 1 are cleaved only after several days of incubation with the enzyme.

[4] = molecular target: T4, hLE (Homo sapiens, UniProt P08246); conditions: CRP as a whole protein; cited from earlier work
T4 sequence (P08246 30-267): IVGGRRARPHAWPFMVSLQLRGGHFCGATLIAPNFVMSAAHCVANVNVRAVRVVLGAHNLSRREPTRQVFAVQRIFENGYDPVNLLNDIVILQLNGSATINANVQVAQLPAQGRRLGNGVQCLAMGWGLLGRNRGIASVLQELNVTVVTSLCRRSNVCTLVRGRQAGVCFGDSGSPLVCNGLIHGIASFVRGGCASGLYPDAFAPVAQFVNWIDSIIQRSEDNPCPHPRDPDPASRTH

[5] = tested on: specific receptors on human neutrophils; conditions: in vitro; cited from earlier work
[6] = molecular target: specific receptors on monocytes; conditions: in vitro; cited from earlier work
[7] = substrate MeOSuc-AAPV-NA, 100 mM Hepes pH 7.4, 37° C., read-out: hLE Ki
[8] = substrate Suc-AAPF-NA, 600 μM, read-out: hCG Ki

Row | Molecule | Ki [1] [µM] | Ki [2] [µM] | other results
1 | CC[C@H](C)[C@H](NC(=O)[C@H](Cc1c[nH]cn1)NC(=O)[C@@H](NC(=O)[C@@H]1CCCN1C(=O)[C@H](C)NC(=O)[C@@H](NC(=O)[C@@H](NC(=O)[C@@H](NC(=O)[C@H](Cc1ccccc1)NC(=O)CCC(=O)OC)C(C)C)[C@@H](C)O)C(C)C)C(C)C)C(=O)O [Peptide 16, MeOSuc-Phe-Val89-Thr-Val-Ala-Pro-Val-His-Ile96] (MeOSuc-FVTVAPVHI-OH) | 100 ± 10 | 100 ± 200 | 
2 | DIGYSFTVGGSEILFEVPEVTVAPVHICT [Peptide 3c] | 4 | 22 ± 3 | 
3 | CC[C@H](C)[C@H](NC(=O)[C@H](Cc1c[nH]cn1)NC(=O)[C@H](NC(=O)[C@@H]1CCCN1C(=O)[C@H](C)NC(=O)[C@@H](NC(=O)[C@@H](NC(=O)[C@@H](N)C(C)C)[C@@H](C)O)C(C)C)C(C)C)C(=O)O [Peptide 7, Val89-Thr-Val-Ala-Pro-(D)Val-His-Ile9] (H-VTVAP[dV]HI-OH; N-terminus and C-terminus assumed) | 330 ± 130 |  | cleavage by hLE (HPLC time-course elution profile) [3]: No observable cleavage products
4 | CC[C@H](C)[C@H](NC(=O)[C@H](Cc1c[nH]cn1)NC(=O)[C@@H](NC(=O)[C@@H]1CCCN1C(=O)[C@H](C)NC(=O)[C@@H](NC(=O)[C@@H](NC(=O)[C@@H](NC(=O)Nc1cccc2ccccc12)C(C)C)[C@@H](C)O)C(C)C)C(C)C)C(=O)O [Peptide 18, Naphtyl-NH-CO-Val89-Thr-Val-Ala-Pro-Val-His-Ile96] ({NH(1-naphthyl)-CO}-VTVAPVHI-OH) | 240 ± 35 | 300 ± 40 | 
5 | VTVAPVFI [Peptide 10, Val89-Thr-Val-Ala-Pro-Val-Phe-Ile96] |  |  | Ki [1, 7]: 110 ± 25 µM; Ki [2, 8]: 1 ± 0.2 µM
6 | H-VTVAPVHI-OH [Peptide 1, Val89-Thr-Val-Ala-Pro-Val-His-Ile96] | 120 ± 15 | 1400 ± 200 | hCG inhibitory capability (in words) [2]: slightly inhibitory; cleavage by hLE (HPLC time-course elution profile) [3]: cleaved as predicted exclusively at the Val-His bond
7 | CRP: plasma protein, major acute phase reactant; five identical sub-units of 206 amino acids forming a cyclic pentamer |  |  | inhibitory effect on hLE [4]: no inhibitory effect; Kd [5]: ~0.05 µM; Kd [6]: ~0.1 µM
8 | GSEILFEVPEVTVAPVHI [Peptide 2, Gly79-Ser-Glu-Ile-Leu-Phe-Glu-Val-Pro-Glu-Val-Thr-Val-Ala-Pro-Val-His-Ile96] | 50 ± 5 | 1200 ± 200 | 
9 | SFTVGGSEILFEVPEVTVAPVHICTSWESA [Peptide 3b] | 22 ± 4 | 200 ± 30 | 
10 | CC[C@H](C)[C@H](NC(=O)[C@H](Cc1c[nH]cn1)NC(=O)[C@@H](NC(=O)[C@@H]1CCCN1C(=O)[C@H](C)NC(=O)[C@@H](NC(=O)[C@@H](NC(=O)[C@@H](NC(=O)[C@H](Cc1ccccc1)NC(=O)OCc1ccccc1)C(C)C)[C@@H](C)O)C(C)C)C(C)C)C(=O)O [Peptide 21, CBz-Phe-Val89-Thr-Val-Ala-Pro-Val-His-Ile96] (Cbz-FVTVAPVHI-OH) | 380 ± 115 | 430 ± 60 | 
11 | CC[C@H](C)[C@H](NC(=O)[C@@H](Cc1c[nH]cn1)NC(=O)[C@@H](NC(=O)[C@@H]1CCCN1C(=O)[C@H](C)NC(=O)[C@@H](NC(=O)[C@@H](NC(=O)[C@@H](N)C(C)C)[C@@H](C)O)C(C)C)C(C)C)C(=O)O [Peptide 6, Val89-Thr-Val-Ala-Pro-Val-(D)His-Ile96] (H-VTVAPV[dH]I-OH; N-terminus and C-terminus assumed) | 450 ± 45 |  | cleavage by hLE (HPLC time-course elution profile) [3]: No observable cleavage products
12 | SFTVGGSEILFEVPEVTVAPVHI [Peptide 3] | 27 ± 3 | 500 ± 100 | 
13 | CC[C@H](C)[C@H](NC(=O)[C@@H](Cc1c[nH]cn1)NC(=O)[C@H](NC(=O)[C@@H]1CCCN1C(=O)[C@H](C)NC(=O)[C@@H](NC(=O)[C@@H](NC(=O)[C@@H](N)C(C)C)[C@@H](C)O)C(C)C)C(C)C)C(=O)O [Peptide 8, Val89-Thr-Val-Ala-Pro-(D)Val-(D)His-Ile96] (H-VTVAP[dV][dH]I-OH; N-terminus and C-terminus assumed) | 490 ± 50 |  | cleavage by hLE (HPLC time-course elution profile) [3]: No observable cleavage products
14 | VTVAPFHIP-NH2 [Peptide 13, Val89-Thr-Val-Ala-Pro-Phe-His-Ile96-Pro-NH2] |  |  | Ki [1, 7]: 180 ± 30 µM; Ki [2, 8]: 900 ± 200 µM
15 | CC[C@H](C)[C@H](NC(=O)[C@H](Cc1c[nH]cn1)NC(=O)[C@@H](NC(=O)[C@@H]1CCCN1C(=O)[C@H](C)NC(=O)[C@@H](NC(=O)[C@@H](NC(=O)[C@@H](NC(=O)OCC1c2ccccc2-c2ccccc21)C(C)C)[C@@H](C)O)C(C)C)C(C)C)C(=O)O [Peptide 23, Fmoc-Val89-Thr-Val-Ala-Pro-Val-His-Ile96] (Fmoc-VTVAPVHI-OH) | 1000 ± 100 | 280 ± 30 | 
